Counter-ions that a name gives are not always drawn.
How the values were obtained:
[1] = Kitchen tests: water, acid (vinegar), base (baking powder, baking soda), boiling; format: physicochemical; details: for free amphetamine released: heated to boiling for 20-60 minutes
Experimental: “Kitchen tests” were performed in anticipation of attempts by illicit chemists to release free amphetamine from the amphetamine conjugate.

[2] = Intranasal bioavailability of peptide amphetamine conjugates (HCl salts, ELISA); details: for Percent AUC (bioavailability relative to Amphetamine) / Percent Cmax (relative to Amphetamine): Intranasal, rats
[3] = Oral bioavailability of peptide amphetamine conjugates (HCl salts, ELISA); details: rats
rats [4] = assay: Single oral dose toxicity; format: in vivo, Sprague Dawley rats; details: rat, single oral dose
Experimental: Three male and three female Sprague Dawley rats per group were given a single oral administration of L-lysine-d-amphetamine at 0.1, 1.0, 10, 60, 100, or 1000 mg/kg (Table 53).
Animals found dead, or sacrificed moribund were necropsied and discarded.

[5] = tested on: enzyme cocktails (pepsin, pancreatin, pronase, esterase, Omnigest, VitälZym); assay: Stability under treatment with commercially available enzyme cocktails; format: in vitro ADME; details: 37° C.
Experimental: For acids and bases (Table 59), 10 mg of Lys-Amp was mixed with 2 mL of each stock solution, and the solution was shaken at 20° C. For enzyme treatment (Table 60), 10 mg Lys-Amp was mixed with 5 mL of each enzyme cocktail, and the solution was shaken at 37° C. […] Many of the commercially available reagents also contained various solvents and/or surfactants.
Unless otherwise indicated, solutions were used directly from the container and were combined with neat Lys-Amp solid. Lewis Red Devil® Lye, Enforcer Drain Care® Septic Treatment, and Rid-X® Septic Treatment were prepared as saturated solutions in H2O. Enzymes used were purchased from Sigma and directly dissolved in water (3 mg/mL pepsin, 10 mg/mL pancreatin, 3 mg/mL pronase, 3 mg/mL esterase), while enzyme-containing nutraceuticals such as Omnigest® and VitälZym® were first either crushed or opened (1 tablet or capsule per 5 mL of H2O).

children with ADHD = assay: Pediatric efficacy trial, ADHD-RS and CPRS, parallel-group, four weeks; details: children 6-12, 30, 50 or 70 mg once daily
[6] = Stability under basic conditions
[7] = Intravenous bioavailability of peptide amphetamine conjugates (HCl salts, ELISA); details: rats
[8] = Oral bioavailability at escalating doses (LC/MS/MS); details: rat, oral
rats [9] = details: cited from earlier work

CC(Cc1ccccc1)NC(=O)CNC(=O)CNC(=O)CN (centres unmarked) [Gly3-Amp, 2-amino-N-({[(1-methyl-2-phenyl-ethylcarbornyl)-methyl]-carbornyl}-methyl)-acetamide]
free amphetamine released ([1]; Baking Powder): 0% | free amphetamine released ([1]; Baking Soda): 0% | free amphetamine released ([1]; Tap Water): 0% | free amphetamine released ([1]; Vinegar): 0% | Release of free amphetamine in kitchen tests ([1]; water, vinegar, baking powder, baking soda, boiling 20-60 minutes): no detectable free amphetamine

[2H]OC(=O)CC[C@H](NC(=O)[C@H](CCC(=O)O)NC(=O)[C@@H](N)CCC(=O)O)C(=O)NC(C)Cc1ccccc1 (some centres unmarked) [EEE-Amp]
Percent AUC (bioavailability relative to Amphetamine) [2]: 10% | Percent Cmax (relative to Amphetamine) [2]: 10% | Percent AUC (bioavailability relative to Amphetamine) [3]: 69% | Percent Cmax (relative to Amphetamine) [3]: 53%

[2H]N(CC(=O)NC(C)Cc1ccccc1)C(=O)[C@@H](N)CCCCN (some centres unmarked) [KG-Amp]
Percent AUC (bioavailability relative to Amphetamine) [2]: 13% | Percent Cmax (relative to Amphetamine) [2]: 12% | Percent AUC (bioavailability relative to Amphetamine) [3]: 69% | Percent Cmax (relative to Amphetamine) [3]: 71%

CC(Cc1ccccc1)NC(=O)CN (centres unmarked) [G-Amp]
Percent AUC (bioavailability relative to Amphetamine) [2]: 65% | Percent Cmax (relative to Amphetamine) [2]: 53% | Percent AUC (bioavailability relative to Amphetamine) [3]: 81% | Percent Cmax (relative to Amphetamine) [3]: 78%

L-lysine-d-amphetamine diHCl
Observable signs of toxicity, Groups 4-6 (rats [4]): increased motor activity within two hours post-dose | Observable signs of toxicity, Groups 1-3 (rats [4]; Days 1-7): no observable signs

[2H]N[C@@H](Cc1c[nH]cn1)C(=O)NC(C)Cc1ccccc1 (some centres unmarked) [H-Amp]
Percent AUC (bioavailability relative to Amphetamine) [2]: 22% | Percent Cmax (relative to Amphetamine) [2]: 42% | Percent AUC (bioavailability relative to Amphetamine) [3]: 16% | Percent Cmax (relative to Amphetamine) [3]: 21%

[2H]OC(=O)CC[C@H](NC(=O)[C@@H](N)CCC(=O)O)C(=O)NC(C)Cc1ccccc1 (some centres unmarked) [EE-Amp]
Percent AUC (bioavailability relative to Amphetamine) [3]: 26% | Percent Cmax (relative to Amphetamine) [3]: 74%

[2H]N1CCC[C@H]1C(=O)NC(C)Cc1ccccc1 (some centres unmarked) [P-Amp]
Percent AUC (bioavailability relative to Amphetamine) [2]: 2% | Percent Cmax (relative to Amphetamine) [2]: 2% | Percent AUC (bioavailability relative to Amphetamine) [3]: 6% | Percent Cmax (relative to Amphetamine) [3]: 3%

CC(Cc1ccccc1)NC(=O)C1CCCN1C(=O)C1CCCN1 (centres unmarked) [PP-Amp]
Percent AUC (bioavailability relative to Amphetamine) [2]: 47% | Percent Cmax (relative to Amphetamine) [2]: 43% | Percent AUC (bioavailability relative to Amphetamine) [3]: 61% | Percent Cmax (relative to Amphetamine) [3]: 80%

[2H]N[C@@H](CC(C)C)C(=O)NC(C)Cc1ccccc1 (stereo partly drawn) [L-Amp]
Percent AUC (bioavailability relative to Amphetamine) [3]: 65% | Percent Cmax (relative to Amphetamine) [3]: 81%

[2H]N(C(=O)[C@@H](N)Cc1ccccc1)[C@@H](Cc1ccccc1)C(=O)NC(C)Cc1ccccc1 (some centres unmarked) [FF-Amp]
Percent AUC (bioavailability relative to Amphetamine) [3]: 27% | Percent Cmax (relative to Amphetamine) [3]: 64%

[2H]N(CC(=O)NC(C)Cc1ccccc1)C(=O)CN (centres unmarked) [GG-Amp]
Percent AUC (bioavailability relative to Amphetamine) [2]: 88% | Percent Cmax (relative to Amphetamine) [2]: 85% | Percent AUC (bioavailability relative to Amphetamine) [3]: 79% | Percent Cmax (relative to Amphetamine) [3]: 88%

[2H]OC(=O)CC[C@H](NC(=O)[C@@H](N)CC(C)C)C(=O)NC(C)Cc1ccccc1 (some centres unmarked) [LE-Amp]
Percent AUC (bioavailability relative to Amphetamine) [2]: 6% | Percent Cmax (relative to Amphetamine) [2]: 6% | Percent AUC (bioavailability relative to Amphetamine) [3]: 40% | Percent Cmax (relative to Amphetamine) [3]: 28%

[2H]N(C(=O)[C@H](CCC(=O)O)NC(=O)[C@@H](N)CCC(=O)O)[C@@H](Cc1ccccc1)C(=O)NC(C)Cc1ccccc1 (some centres unmarked) [EEF-Amp]
Percent AUC (bioavailability relative to Amphetamine) [2]: 39% | Percent Cmax (relative to Amphetamine) [2]: 29% | Percent AUC (bioavailability relative to Amphetamine) [3]: 42% | Percent Cmax (relative to Amphetamine) [3]: 73%

L-lysine-d-amphetamine dimesylate
d-amphetamine released ([5]; Cellfood ®, 1 h): 0 w.t. % d-amphetamine | d-amphetamine released ([5]; Cellfood ®, 24 h): 0 w.t. % d-amphetamine | d-amphetamine released ([5]; Drano ® Max with Bacteria, 1 h): 0 w.t. % d-amphetamine | d-amphetamine released ([5]; Drano ® Max with Bacteria, 24 h): 0 w.t. % d-amphetamine | d-amphetamine released ([5]; Enforcer ® Septic, 1 h): 0 w.t. % d-amphetamine | d-amphetamine released ([5]; Enforcer ® Septic, 24 h): 0 w.t. % d-amphetamine | d-amphetamine released ([5]; Esterase 3 mg/mL, 1 h): 0 w.t. % d-amphetamine | d-amphetamine released ([5]; Esterase 3 mg/mL, 24 h): 19 w.t. % d-amphetamine | d-amphetamine released ([5]; Omnigest ®, 1 h): 0 w.t. % d-amphetamine | d-amphetamine released ([5]; Omnigest ®, 24 h): 0 w.t. % d-amphetamine | d-amphetamine released ([5]; Pancreatin 10 mg/mL, 1 h): 0 w.t. % d-amphetamine | d-amphetamine released ([5]; Pancreatin 10 mg/mL, 24 h): 0 w.t. % d-amphetamine | d-amphetamine released ([5]; Pepsin 3 mg/mL, 1 h): 0 w.t. % d-amphetamine | d-amphetamine released ([5]; Pepsin 3 mg/mL, 24 h): 0 w.t. % d-amphetamine | d-amphetamine released ([5]; Pronase 3 mg/mL, 1 h): 0 w.t. % d-amphetamine | d-amphetamine released ([5]; Pronase 3 mg/mL, 24 h): 24 w.t. % d-amphetamine | d-amphetamine released ([5]; Rid-X ® Septic, 1 h): 0 w.t. % d-amphetamine | d-amphetamine released ([5]; Rid-X ® Septic, 24 h): 0 w.t. % d-amphetamine | d-amphetamine released ([5]; VitälZym ®, 1 h): 0 w.t. % d-amphetamine | d-amphetamine released ([5]; VitälZym ®, 24 h): 0 w.t. % d-amphetamine | Signs and symptoms of ADHD (ADHD-RS, CPRS) compared to placebo (children with ADHD): Significant improvements | Maximum d-amphetamine release ([6]; 3M sodium hydroxide): 25.4% | d-amphetamine release ([6]; all other basic conditions): less than 3%

CC(Cc1ccccc1)NC(=O)C(O)C(O)C(O)C(O)CO (centres unmarked) [Gulonate-Amp]
Percent AUC (bioavailability relative to Amphetamine) [2]: 0.4% | Percent Cmax (relative to Amphetamine) [2]: 0.5% | Percent AUC (bioavailability relative to Amphetamine) [3]: 1% | Percent Cmax (relative to Amphetamine) [3]: 1% | Percent AUC (bioavailability relative to Amphetamine) [7]: 3% | Percent Cmax (relative to Amphetamine) [7]: 5%

[2H]N[C@@H](Cc1ccc(O)cc1)C(=O)NC(C)Cc1ccccc1 (some centres unmarked) [Y-Amp]
Percent AUC (bioavailability relative to Amphetamine) [2]: 21% | Percent Cmax (relative to Amphetamine) [2]: 20% | Percent AUC (bioavailability relative to Amphetamine) [3]: 25% | Percent Cmax (relative to Amphetamine) [3]: 20%

CC(Cc1ccccc1)NC(=O)C(N)Cc1ccccc1 (centres unmarked) [Phe-Amp, 2-amino-3-phenylpropanoic acid-(1-methyl-2-phenylethyl)-amide]
Bioavailability by parenteral routes of administration ([2]; rat, parenteral routes): little or no decrease

C[C@H](N)Cc1ccccc1 [d-amphetamine sulfate]
F of d-amphetamine ([8]; 12 mg/kg): 101% | F of d-amphetamine ([8]; 60 mg/kg): 223% | Oral LD50 (rats [9]): 96.8 mg/kg

[2H]OC(=O)CC[C@H](N)C(=O)NC(C)Cc1ccccc1 (some centres unmarked) [E-Amp]
Percent AUC (bioavailability relative to Amphetamine) [3]: 73% | Percent Cmax (relative to Amphetamine) [3]: 95%

[2H]N[C@H](C(=O)NC(C)Cc1ccccc1)[C@@H](C)CC (some centres unmarked) [I-Amp]
Percent AUC (bioavailability relative to Amphetamine) [2]: 73% | Percent Cmax (relative to Amphetamine) [2]: 97% | Percent AUC (bioavailability relative to Amphetamine) [3]: 71% | Percent Cmax (relative to Amphetamine) [3]: 52%

— US20090181898A1, “ABUSE-RESISTANT A[…]” (SHIRE LLC, priority 2002, published 2009)
